Experimental data from patent US9266903B2, “Polymorphs of 2-(4-(2-(1-isopropyl-3-methyl-1H-1,2,4-triazole-5-yl)-5,6-dihydrobenzo[F]imidazo [1,2-D][1,4]oxazepin-9-yl)-1H-pyrazol-1-yl)-2-methylpropanamide, methods of production, and pharmaceutical uses thereof” (Genentech, Inc., priority 2013, dated 2016).
In brackets after ≈: the same amount, converted by molar mass.

Columns and labels:
[1] = Stability of solvate/hydrate forms in the absence of solvent or at low humidity; format: physicochemical
[2] = Solubility of GDC-0032 in methanol at high temperature; format: physicochemical; settings: approximately 15 mg in 500 mL methanol, 24 hours equilibration
Protocol: Solubility of GDC-0032 in methanol at high temperature: Solubility of GDC-0032 in methanol at 45° C. and 55° C. was measured. Two slurries were prepared with approximately 15 mg of starting material and 500 mL of methanol. The slurries were subsequently placed in two ovens, at 45° C. and 55° C. each. After 24 hours of equilibration the two slurries were visually checked. In both cases the dissolution was not complete. The solids were separated from the mother liquor and were harvested both wet and dried for XRPD and digital imaging. The mother liquor was evaporated and the solids were also analyzed by XRPD and digital imaging.

[3] = pKa and log P by potentiometric titration; format: physicochemical
Protocol: GDC-0032 API is a white to off-white solid. It is crystalline as confirmed by the sharp peaks of its XRPD pattern and has a melting point of 258° C. Several physical forms of GDC-0032 free base, including an anhydrous form (Form B), several hydrates, and several solvates, have been identified to date. Form B has a melting point range of 256° C. to 258° C. Form B has been produced consistently in the API process to date. […] The reproducibility and stability of the crystalline form will be monitored during API synthesis and stability. GDC-0032 is non-hygroscopic, with less than 0.2% weight gain at 95% RH in the dynamic moisture sorption experiment.

[4] = Solubility assessment as a function of pH and in different buffers and formulation vehicles; format: physicochemical
From the text: The solubility behavior of GDC-0032 API is summarized as a Function of pH and in Different Buffers and Formulation Vehicles

[5] = Solid-state physical form stability (accelerated 40° C./75% RH, high humidity, API stability studies); format: physicochemical
[6] = Solubility in solvents/solvent mixtures at two temperatures (visual dissolution, HPLC for suspensions); format: physicochemical
Protocol: The solubility of GDC-0032 was determined in various solvents/solvent mixtures at two different temperatures: Ethanol absolute, Methanol, Isopropanol, Acetone, Ethyl Acetate, Isopropyl acetate, Tetrahydrofuran, 2-Butanone, Methanol/Water (50/50), 2,2,2-Trifluoroethanol (TFE), 2-Butanone, TFE/Ethyl acetate (50/50), TFE/Acetone (50/50), TFE/Water (50/50), Acetonitrile, Acetonitrile/water (50/50), Acetone/water (50/50), Tert-butyl methyl ether, n-Heptane, Ethanol/Ethyl acetate (50/50), Ethanol/Acetone (50/50), Methanol/water (90/10), Ethanol/Acetonitrile (50/50).
For each experiment, approximately 5-10 mg of material was weighed in 40 mL vials. […] In each vial, the solvent was added to the solid in steps of 50 μL until dissolution or until a minimum concentration of 0.2 mg/mL was reached. Dissolution was assessed visually at two temperatures, room temperature (RT) and a higher temperature (Tmax=50 or 70° C., selected such that the boiling point of the solvent was higher than Tmax). Solubility was measured by HPLC for suspensions.

[7] = Dynamic vapor sorption (DVS); format: physicochemical; settings: for weight gain in DVS / dynamic moisture sorption experiment: at 95% RH
Protocol: Automated vapor sorption data were collected on a TA Instruments Q5000SA vapor sorption analyzer. NaCl and PVP were used as calibration standards. Samples were not dried prior to analysis. Adsorption and desorption data were collected at 25° C. over a range from 5 to 95% RH at 10% RH increments under a nitrogen purge. Samples were held at the corresponding RH for 1 hour prior to moving to the next RH range. Data were not corrected for the initial moisture content of the samples.

[8] = test system: PI3K; settings: cited from earlier work
[9] = Slurry in water (conversion to hydrate); format: physicochemical
[10] = Slurry interconversion experiments in pure isoamyl alcohol; format: physicochemical; settings: Form B versus Form C in pure isoamyl alcohol
Protocol: Form C was derived only from isoamyl alcohol and was initially formed at 5° C. It is crystalline by XRPD (FIG. 13) and PLM. […] This weight loss was divided into two broad steps: a 5.2% weight loss was observed from ambient to 105° C. and an additional 9.8% weight loss was observed from 105-125° C. (bp of isoamyl alcohol: 130° C.). The theoretical weight loss for a mono-solvate is 16.1% and 8.7% for a hemi-solvate. The crystal structure of Form C was solved. Form C is the mono-isoamyl alcoholate. […] The solvate, Form C, was favored at temperatures of 15° C. or below.

[11] = Isothermal TGA dehydration; format: physicochemical
Protocol: Weight change as a function of temperature was determined by TGA. […] 0.1-2 milligrams of the sample were placed in a DSC pan located on the sample holder. The sample holder was heated in the TGA from 25 to 300° C. at a heating rate of 10° C. min^−1. Dry N2 gas was used for purging. Isothermal experiments were conducted by heating the sample at 10° C./min to the desired temperature and then holding the sample at that temperature for at least 200 minutes.

## C1CCOC1.Cc1nc(-c2cn3c(n2)-c2ccc(-c4cnn(C(C)(C)C(N)=O)c4)cc2OCC3)n(C(C)C)n1 [Form AC]
[1]
  stability in the absence of the solvate solvent: not stable

## Cc1nc(-c2cn3c(n2)-c2ccc(-c4cnn(C(C)(C)C(N)=O)c4)cc2OCC3)n(C(C)C)n1 [GDC-0032, 2-(4-(2-(1-isopropyl-3-methyl-1H-1,2,4-triazol-5-yl)-5,6-dihydrobenzo[f]imidazo[1,2-d][1,4]oxazepin-9-yl)-1H-pyrazol-1-yl)-2-methylpropanamide]
[2]; 45° C.
  dissolution in methanol: not complete
[2]; 55° C.
  dissolution in methanol: not complete
[3]
  logP: 2.5
[3]; weak base
  pKa: 3.19
[4]; FaSSIF, pH 6.8, at 37° C.
  solubility: 22 µg/mL (≈ 47.8 µM)
[4]; FeSSIF, pH 5.0, at 37° C.
  solubility: 270 µg/mL (≈ 586 µM)
[4]; aqueous buffer, 50 mM phosphate buffer, pH 6.5, at room temperature
  solubility: 0.72 µg/mL (≈ 1.56 µM)
[4]; simulated gastric fluid, 0.1N HCl, pH 1.1, at room temperature
  solubility: 54 µg/mL (≈ 117 µM)
[4]; water
  solubility: 1.5 µg/mL (≈ 3.26 µM)
[5]
  physical form conversion in ongoing stability studies for the API: no physical form conversion
[6]
  solubility in 2,2,2-trifluoroethanol (TFE): high solubility
[6]; 23 listed solvents/mixtures, RT and Tmax 50 or 70° C.
  solubility in various solvents/solvent mixtures: soluble in all except for Ethyl Acetate, Isopropyl acetate, Tetrahydrofuran, Tert-butyl methyl ether, and n-Heptane
[7]
  weight gain in DVS / dynamic moisture sorption experiment: less than 0.2%
[8]
  PI3K activity: potent

## Cc1nc(-c2cn3c(n2)-c2ccc(-c4cnn(C(C)(C)C(N)=O)c4)cc2OCC3)n(C(C)C)n1 [Form B]
[9]; water, with and without Tween 80
  conversion on slurrying in water: no conversion to the hydrate
[5]; 40° C. and 75% RH
  physical form after accelerated stability tests: unchanged
[5]; high humidity for at least 6 months
  form change when exposed to high humidity: does not exhibit any form change
[10]
  temperature at which the form is preferred/favored in slurry interconversion: ≥ 20 °C
[7]
  physical form after the DVS experiment: still Form B
  weight gain in DVS / dynamic moisture sorption experiment: less than 0.3%

## Cc1nc(-c2cn3c(n2)-c2ccc(-c4cnn(C(C)(C)C(N)=O)c4)cc2OCC3)n(C(C)C)n1.O [Form D]
[11]; isothermal at 60° C.
  time to complete dehydration on the TGA: ≤ 40 min
[11]; isothermal at 100° C.
  time to complete dehydration on the TGA: ≤ 15 min

## C1COCCO1.Cc1nc(-c2cn3c(n2)-c2ccc(-c4cnn(C(C)(C)C(N)=O)c4)cc2OCC3)n(C(C)C)n1.Cc1nc(-c2cn3c(n2)-c2ccc(-c4cnn(C(C)(C)C(N)=O)c4)cc2OCC3)n(C(C)C)n1 [Form AA]
[1]
  stability in the absence of the solvate solvent: not stable

## CC(C)CCO.Cc1nc(-c2cn3c(n2)-c2ccc(-c4cnn(C(C)(C)C(N)=O)c4)cc2OCC3)n(C(C)C)n1 [Form C]
[10]
  temperature at which the form is preferred/favored in slurry interconversion: ≤ 15 °C

## CC(C)C(=O)C(C)C.Cc1nc(-c2cn3c(n2)-c2ccc(-c4cnn(C(C)(C)C(N)=O)c4)cc2OCC3)n(C(C)C)n1 [Form Z]
[1]
  stability in the absence of the solvate solvent: converts to Form B

## CO.Cc1nc(-c2cn3c(n2)-c2ccc(-c4cnn(C(C)(C)C(N)=O)c4)cc2OCC3)n(C(C)C)n1 [Form A]
[9]; 50° C.
  form obtained on slurrying in the presence of water: Form D
[9]; room temperature, after drying
  form obtained from water slurry experiment: mixture of Form A and Form D

## Cc1nc(-c2cn3c(n2)-c2ccc(-c4cnn(C(C)(C)C(N)=O)c4)cc2OCC3)n(C(C)C)n1.O [Form X]
[1]; at 20° C.
  humidity at which Form X reversibly converts to Form Y: 10-20 % RH
